Patent publication US20140038920A1, “TFEB PHOSPHORYLATION INHIBITORS AND USES THEREOF” (FONDAZIONE TELETHON, priority 2011, published 2014)
Read-outs that look alike come from different tables or passages of the source.

What was measured:
TFEB = experiment: High content TFEB-GFP nuclear translocation assay; type: cell-based; settings: Homo sapiens, TFEB-GFP HeLa cells
TFEB S142 = TFEB S142 phosphorylation with p-S142 phospho-antibody in HeLa cells (FIG. 20A); type: cell-based; settings: starved cells supplemented with normal media with inhibitor
Procedure: FIG. 20 mTORC1 phosphorylates TFEB at serine 142 (S142). […] HeLa cells were treated as indicated and total and nuclear extracts were probed with a TFEB p-S142 phospho-antibody and with anti-FLAG antibody. (B) Schematic representation of TFEB protein structure with the predicted mTORC1 phosphorylation sites and their conservation among vertebrates. Numbering is according to human isoform 1. (C) Sequence conservation scores of the phosphorylation sites and quantitative agreement between mTOR consensus motif and the sequence around the phosphorylation sites of TFEB. (D) S142 and S211 regulate TFEB localization. Flag immunostaining of TFEB subcellular localization in HeLa cells expressing serine-to-alanine mutated versions of TFEB-3×Flag. Nuclei were stained with DAPI. Values are means of five fields containing at least 50 transfected cells. Student's t-test (unpaired) ***P<0.001. Scale bars represent […].
The mouse anti-TFEB monoclonal antibody was purchased from My Biosource catalogue No. MBS 120432. To generate anti-pS142 specific antibodies, rabbits were immunized with the following peptide coupled to KLH: AGNSAPN{pSer}[…]. Following the fourth immunization, rabbits were sacrificed and the serum was collected. Non-phosphospecific antibodies were depleted from the serum by circulation through a column containing the nonphosphorylated antigene. […]

[1] = 3 h, ten concentrations 2.54 nM to 50 μM (FIG. 19D), read-out: EC50, TFEB nuclear translocation
[2] = mobilization of cytosolic TFEB to the nucleus, 3 h at 37° C. in RPMI, ten concentrations 50 μM to 2.54 nM, 4 runs, read-out: Average EC50

## CO[C@H]1C[C@@H]2CC[C@@H](C)[C@@](O)(O2)C(=O)C(=O)N2CCCC[C@H]2C(=O)O[C@H]([C@H](C)C[C@@H]2CC[C@@H](O)[C@H](OC)C2)CC(=O)[C@H](C)/C=C(\C)[C@@H](O)[C@@H](OC)C(=O)[C@H](C)C[C@H](C)/C=C/C=C/C=C/1C [RAPAMYCIN]
TFEB; [1]
  EC50: 104 µM
TFEB; [2]
  EC50: > 15 µM
TFEB S142
  nutrient-induced S142 phosphorylation of TFEB: did not

## CCC(=O)N1CCN(c2ccc(-n3c(=O)ccc4cnc5ccc(-c6cnc7ccccc7c6)cc5c43)cc2C(F)(F)F)CC1 [TORIN 1]
TFEB; [1]
  EC50: 0.148 µM
TFEB; [2]
  EC50: < 7 µM
TFEB S142
  nutrient-induced S142 phosphorylation of TFEB: clearly blunted nutrient-induced S142 phosphorylation
